Consider 20 molecules from patent US8772283B2, “Imidazo-oxazine compound or salt thereof” (Taiho Pharmaceutical Co., Ltd., priority 2011, dated 2014).

Structures can show the parent of a compound that is named as a salt.

As usually defined, the IC50 is the point on the concentration scale where inhibition reaches its midpoint. High values mean lower potency, low ones higher potency.

In one test the target is human AKT1 (Homo sapiens (Human), UniProt P31749). The test can be described thus: AKT1 kinase activity inhibition (TR-FRET, biotinylated Crosstide substrate). It counts as biochemical. The conditions noted are these: preincubation 120 min at 25° C.; ATP 150 μM; Crosstide 500 nM. The protocol:
(§1) Preparation of AKT1 and AKT2 and measurement of in vitro inhibitory activity of the above-mentioned compounds against AKT1 and AKT2 kinase activity were carried out with reference to the method disclosed in Biochem. J. Vol. 385, pp 399-408 (2005). In the preparation of AKT1 and AKT2, human AKT1 and AKT2 to which a middle T antigen tag was added were expressed in Sf 9 insect cells, and then AKT1 and AKT2 were prepared following affinity purification and activation by PDK1. The prepared AKT1 and AKT2 were stored at −80° C. until the time of measurement of inhibitory activity of the compounds. In the measurement of inhibitory activity of the compounds, AKT1 or AKT2 and each compound of the present invention were preincubated at 25° C. for 120 minutes in a buffer solution for reaction (15 mM Tris-HCl pH 7.5, 0.01% Tween-20, 2 mM DTT). As a substrate, biotinylated Crosstide (bioton-KGSGSGRPRTSSFAEG), MgCl2, and ATP were added to final concentrations of 500 nM, 10 mM, and 150 μM, respectively, and reactions were carried out at 25° C. for 60 minutes. The reactions were stopped by adding EDTA to a final concentration of 80 mM. Then, a detection liquid in which an Eu-labeled anti-phosphorylation Crosstide antibody (PerkinElmer) and SureLight APC-SA (PerkinElmer) were contained at a final concentration of 0.5 nM and […], respectively, was added, and reactions were carried out at room temperature for 2 hours. Finally, the amount of fluorescence at the time of irradiation of excitation light having a wavelength of 337 nm was measured at dual wavelengths of 620 nm and 665 nm by PHERAstar FS (BMG LABTECH). The amount of phosphorylation was determined from the ratio of the fluorescence amounts at the dual wavelengths. The compound concentration at which phosphorylation can be inhibited by 50% was defined as […] (nM), and the results are shown in Table 4 below.
(In general: In TR-FRET formats the signal depends on donor and acceptor labels being close together.)

For the next test, the target named is human AKT2 (Homo sapiens (Human), UniProt P31751). The test can be described thus: AKT2 kinase activity inhibition (TR-FRET, biotinylated Crosstide substrate). It counts as biochemical. As to conditions: preincubation 120 min at 25° C.; ATP 150 μM; Crosstide 500 nM. The procedure: as §1
human AKT2, sequence (P31751 whole entry): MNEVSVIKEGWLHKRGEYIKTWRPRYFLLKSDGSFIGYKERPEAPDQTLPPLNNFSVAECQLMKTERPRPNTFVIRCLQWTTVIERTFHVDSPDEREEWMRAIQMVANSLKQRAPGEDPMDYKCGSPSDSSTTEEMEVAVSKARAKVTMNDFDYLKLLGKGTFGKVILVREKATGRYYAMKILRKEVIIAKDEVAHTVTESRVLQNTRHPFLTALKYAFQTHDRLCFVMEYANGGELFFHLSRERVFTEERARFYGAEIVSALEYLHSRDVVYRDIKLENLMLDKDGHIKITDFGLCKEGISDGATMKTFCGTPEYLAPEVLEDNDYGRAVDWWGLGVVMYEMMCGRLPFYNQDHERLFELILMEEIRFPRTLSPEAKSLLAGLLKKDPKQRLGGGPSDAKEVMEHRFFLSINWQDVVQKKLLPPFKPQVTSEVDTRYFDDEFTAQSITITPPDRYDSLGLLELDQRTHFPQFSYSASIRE

human AKT1, sequence (P31749 whole entry): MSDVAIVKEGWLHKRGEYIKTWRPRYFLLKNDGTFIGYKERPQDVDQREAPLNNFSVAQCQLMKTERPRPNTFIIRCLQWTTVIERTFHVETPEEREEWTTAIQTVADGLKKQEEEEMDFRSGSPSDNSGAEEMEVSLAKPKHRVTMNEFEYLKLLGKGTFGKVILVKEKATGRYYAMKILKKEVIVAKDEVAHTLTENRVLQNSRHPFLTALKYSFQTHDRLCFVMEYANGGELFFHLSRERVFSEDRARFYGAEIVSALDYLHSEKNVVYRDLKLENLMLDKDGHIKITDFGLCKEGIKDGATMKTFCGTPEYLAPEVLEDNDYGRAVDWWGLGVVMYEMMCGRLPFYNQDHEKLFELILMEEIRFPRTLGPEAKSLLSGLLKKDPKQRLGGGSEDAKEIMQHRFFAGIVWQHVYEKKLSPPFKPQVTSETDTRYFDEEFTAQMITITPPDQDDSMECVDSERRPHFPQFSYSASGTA

As to `NC1(c2ccc(-c3nc4n(c3-c3ccccc3)COc3cnccc3-4)cc2)CCC1` [Example 37, 1-(4-(3-phenyl-5H-imidazo[1,2-c]pyrido[4,3-e][1,3]oxazin-2-yl)phenyl)cyclobutanamine], the IC50 was 5.5 nM against human AKT1 and 1.1 nM against human AKT2.

As for `CC1(O)CC(N)(c2ccc(-c3nc4n(c3-c3ccccc3)COc3ccc(C(=O)NCCO)cc3-4)cc2)C1` (stereo not drawn) [Example 60, 2-(4-(trans-1-amino-3-hydroxy-3-methylcyclobutyl)phenyl)-N-(2-hydroxyethyl)-3-phenyl-5H-benzo[e]imidazo[1,2-c][1,3]oxazine-9-carboxamide], the IC50 at human AKT1 was 2.4 nM; against human AKT2, 0.57 nM.

Take `C[C@]1(O)C[C@@](N)(c2ccc(-c3nc4n(c3-c3ccccc3)COc3cc(F)ccc3-4)cc2)C1` [Example 9, trans-3-amino-3-(4-(8-fluoro-3-phenyl-5H-benzo[e]imidazo[1,2-c][1,3]oxazin-2-yl)phenyl)-1-methylcyclobutanol]: the IC50 on human AKT1 worked out at 8.5 nM; on human AKT2 it was 2 nM.

Turning to `COc1cc(OC)c2c(c1)OCn1c-2nc(-c2ccc(C3(N)CC(O)(C4CC4)C3)cc2)c1-c1ccccc1` (stereo not drawn) [Example 25, trans-3-amino-1-cyclopropyl-3-(4-(8,10-dimethoxy-3-phenyl-5H-benzo[e]imidazo[1,2-c][1,3]oxazin-2-yl)phenyl)cyclobutanol], the half-maximal inhibitory concentration (IC50) at human AKT1 was determined as 12 nM; at human AKT2, 0.27 nM.

In the case of `CC1(O)CC(N)(c2ccc(-c3nc4n(c3-c3ccccc3)COc3cc(C#N)ccc3-4)cc2)C1` (stereo not drawn) [Example 47, 2-(4-(trans-1-amino-3-hydroxy-3-methylcyclobutyl)phenyl)-3-phenyl-5H-benzo[e]imidazo[1,2-c][1,3]oxazine-8-carbonitrile], the values for the IC50 against human AKT1 and on human AKT2 were 6.2 nM and 1.2 nM, respectively.

`CC1(O)CC(N)(c2ccc(-c3nc4n(c3-c3ccccc3)COc3cc(C(N)=O)ccc3-4)cc2)C1` (stereo not drawn) [Example 62, 2-(4-(trans-1-amino-3-hydroxy-3-methylcyclobutyl)phenyl)-3-phenyl-5H-benzo[e]imidazo[1,2-c][1,3]oxazine-8-carboxamide]: the IC50 stood at 1.3 nM against human AKT1 and 0.4 nM against human AKT2.

For `COc1ccc2c(n1)-c1nc(-c3ccc(C4(N)CC(C)(O)C4)cc3)c(-c3ccccc3)n1CO2` (stereo not drawn) [Example 51, trans-3-amino-3-(4-(9-methoxy-3-phenyl-5H-imidazo[1,2-c]pyrido[2,3-e][1,3]oxazin-2-yl)phenyl)-1-methylcyclobutanol], the IC50 against human AKT1 worked out at 5.5 nM; at human AKT2 it was 1.1 nM.

For the molecule `CCNC(=O)c1ccc2c(c1)-c1nc(-c3ccc(C4(N)CC(C)(O)C4)cc3)c(-c3ccccc3)n1CO2` (stereo not drawn) [Example 55, 2-(4-(trans-1-amino-3-hydroxy-3-methylcyclobutyl)phenyl)-N-ethyl-3-phenyl-5H-benzo[e]imidazo[1,2-c][1,3]oxazine-9-carboxamide], the results for the IC50 against human AKT1 and at human AKT2 were 1.8 nM and 0.31 nM, respectively.

For `CN(C)C(=O)c1ccc2c(c1)OCn1c-2nc(-c2ccc(C3(N)CC(C)(O)C3)cc2)c1-c1ccccc1` (stereo not drawn) [Example 57, 2-(4-(trans-1-amino-3-hydroxy-3-methylcyclobutyl)phenyl)-N,N-dimethyl-3-phenyl-5H-benzo[e]imidazo[1,2-c][1,3]oxazine-8-carboxamide], the IC50 against human AKT1 turned out to be 15 nM; on human AKT2, 3.5 nM.

For `NC1(c2ccc(-c3nc4n(c3-c3ccccc3)COc3cccnc3-4)cc2)CCC1` [Example 29, 1-(4-(3-phenyl-5H-imidazo[1,2-c]pyrido[2,3-e][1,3]oxazin-2-yl)phenyl)cyclobutanamine], the figures for the IC50 against human AKT1 and against human AKT2 were 35 nM and 4 nM, respectively.

`CNC(=O)c1ccc2c(c1)-c1nc(-c3ccc([C@]4(N)C[C@](C)(O)C4)cc3)c(-c3ccccc3)n1CO2` [Example 52, 2-(4-(trans-1-amino-3-hydroxy-3-methylcyclobutyl)phenyl)-N-methyl-3-phenyl-5H-benzo[e]imidazo[1,2-c][1,3]oxazine-9-carboxamide]: the IC50 at human AKT1 was 1.5 nM; on human AKT2, 0.28 nM.

`Cc1ccc2c(n1)-c1nc(-c3ccc(C4(N)CC(C)(O)C4)cc3)c(-c3ccccc3)n1CO2` (stereo not drawn) [Example 50, trans-3-amino-1-methyl-3-(4-(9-methyl-3-phenyl-5H-imidazo[1,2-c]pyrido[2,3-e][1,3]oxazin-2-yl)phenyl)cyclobutanol]: the IC50 stood at 11 nM at human AKT1 and 0.85 nM at human AKT2.

On to `CC1(O)CC(N)(c2ccc(-c3nc4n(c3-c3ccccc3)COc3ncccc3-4)cc2)C1` (stereo not drawn) [Example 39, trans-3-amino-1-methyl-3-(4-(3-phenyl-5H-imidazo[1,2-c]pyrido[3,2-e][1,3]oxazin-2-yl)phenyl)cyclobutanol], for which the IC50 on human AKT1 is 1.4 nM; against human AKT2 it was 0.97 nM.

For the molecule `CC1(O)CC(N)(c2ccc(-c3nc4n(c3-c3ccccc3)COc3ccc(C(=O)O)cc3-4)cc2)C1` (stereo not drawn) [Example 63, 2-(4-(trans-1-amino-3-hydroxy-3-methylcyclobutyl)phenyl)-3-phenyl-5H-benzo[e]imidazo[1,2-c][1,3]oxazine-9-carboxylic acid hydrochloride], the IC50 against human AKT1 is 5 nM; against human AKT2, 0.91 nM.

In the case of `CC[C@]1(O)C[C@@](N)(c2ccc(-c3nc4n(c3-c3ccccc3)COc3ccncc3-4)cc2)C1` [Example 34, trans-3-amino-1-ethyl-3-(4-(3-phenyl-5H-imidazo[1,2-c]pyrido[3,4-e][1,3]oxazin-2-yl)phenyl)cyclobutanol], the IC50 came to 12 nM against human AKT1 and 2.1 nM against human AKT2.

Take “trans-3-amino-1-methyl-3-(4-(3-phenyl-5H-imidazo[1,2-c]pyrazino[2,3-e][1,3]oxazin-2-yl)phenyl)cyclobutanol [Example 42]”: the IC50 against human AKT1 turned out to be 6.4 nM; against human AKT2, 4 nM.

Take `NC1(c2ccc(-c3nc4n(c3-c3ccccc3)COc3cccc(Cl)c3-4)cc2)CC(O)(C2CC2)C1` (stereo not drawn) [Example 22, trans-3-amino-3-(4-(10-chloro-3-phenyl-5H-benzo[e]imidazo[1,2-c][1,3]oxazin-2-yl)phenyl)-1-cyclopropylcyclobutanol]: the IC50 on human AKT1 is 8.2 nM; against human AKT2 it was 0.3 nM.

Turning to `CCC1(O)CC(N)(c2ccc(-c3nc4n(c3-c3ccccc3)COc3nccnc3-4)cc2)C1` (stereo not drawn) [Example 43, trans-3-amino-1-ethyl-3-(4-(3-phenyl-5H-imidazo[1,2-c]pyrazino[2,3-e][1,3]oxazin-2-yl)phenyl)cyclobutanol], the IC50 at human AKT1 stood at 8 nM; against human AKT2, 7 nM.

For `NC1(c2ccc(-c3nc4n(c3-c3ccccc3)COc3ccccc3-4)cc2)CCC1` [Example 13, 1-(4-(3-phenyl-5H-benzo[e]imidazo[1,2-c][1,3]oxazin-2-yl)phenyl)cyclobutanamine], the IC50 on human AKT1 was determined as 13 nM; at human AKT2, 2.8 nM.

For `CC1(O)CC(N)(c2ccc(-c3nc4n(c3-c3ccccc3)COc3ccc(F)cc3-4)cc2)C1` (stereo not drawn) [Example 8, trans-3-amino-3-(4-(9-fluoro-3-phenyl-5H-benzo[e]imidazo[1,2-c][1,3]oxazin-2-yl)phenyl)-1-methylcyclobutanol], the IC50 on human AKT1 came to 6.4 nM; against human AKT2, 1 nM.
